The text below walks through data of patent US20130345164A1, “TREATMENTS FOR CELLULAR PROLIFERATIVE DISORDERS AND IDENTIFICATION THEREOF” (UNIVERSITY OF MEDICINE AND DENTISTRY OF NEW JERSEY, priority 2010, published 2013).

Broadly, the pIC50 is the IC50 on a negative log10 scale, so that one unit is a factor of ten. High values mean a small IC50, low ones a large IC50.

Experiment [1] has as its system p21 protein. Briefly: Western Blot of p21 protein levels. The format is cell-based, human. A general note: Immunoblotting shows a protein as a band on a membrane.
In experiment [2] the test system is cells carrying p53 mutations. Briefly: NCI60 screen Score ranking, p53 mutant case group vs p53 wild-type control group. As to conditions: p53 273/248 mutant case group vs p53 wild-type control group; NCI60 data. On the procedure:
The Score calculations are carried out by: • (1) calculating a Responsive Fraction, i.e., the fraction of the case cell lines in the Case Group that are responsive to the test treatment; • (2) calculating a Non-Responsive Fraction i.e., the fraction of the control cell lines in the Control Group that are not responsive to the test treatment; and • (3) generating a Score of the test treatment according to Formula I:
Score=the Responsive Fraction×the Non-Responsive Fraction.
Among the NCI60 cell lines, 16 have wild-type p53 and 44 carry a p53 alteration (Ikediobi, O. N., et al., Mol Cancer Ther, 2006. 5(11): p. 2606-12). Mutations at amino acids 273 and 248 are the most frequent, with 5 and 4 cell lines, respectively. Given the abundance of p53 mutations at positions 273 and 248 within the NCI60 cell lines, and their location in the p53-DNA contact, cells carrying these mutations were chosen to form a case group to identify compounds with increased activity in tumors with a mutant p53. On the other hand, cells with a wild-type p53 were chosen to form a control group. The resulting groups are the following:
• Leukemia: CCRF-CEM; • Lung Cancer: NCI-H322M; • Central Nervous System Cancer: SF-295, SF-268, SNB-19, and U251; • Colorectal Cancer: HT29 and SW-620; • Ovarian Cancer: OVCAR-3.
• Breast Cancer: MCF7; • Colorectal Cancer: HCT-116; • Lung Cancer: A549, NCI-H226, and NCI-H460; • Leukemia: SR; • Melanoma: LOXIMVI, MALME-3M, SK-MEL-5, UACC-257, and UACC-62; • Ovarian Cancer: OVCAR-5; • Renal Cancer: A498, ACHN, CAKI-1, and UO-31.
Using the protocols described above, the NCI60 treatment-cell line RG was constructed, taking RS=log10IC50-average(log10IC50) as a relative response sensitivity measurement and computing the average(log10IC50) over all the 60 cell lines. The Case and Control groups listed above were chosen, and the score in Formula I was computed for the 47,624 compounds in the NCI60 screen.

In experiment [3] the test system is p53 targets (p21, PUMA, and MDM2). Description: Quantitative real-time PCR of p53 targets. Conditions: TOV112D cells, treated vs untreated, normalized with actin. The experiment is classed as cell-based, human. As for the experimental part: Each treatment had three independent repeats (labeled as 1, 2, and 3); (e) Comparison of the p53 expression signatures of 319726 treated cells with that of p53 wild type, p53 null and p53R175H cell lines in response to gamma-irradiation.
Assays were carried out to compare the mRNA levels of several p53 targets (p21, PUMA, and MDM2) in the TOV112D (p53R175H), OVCAR3 (p53R248W) and SKOV3 (p53 null) upon treatment with the compounds. The relative gene expression level was normalized with the actin and the ratio of the treated level vs. untreated level was shown for each cell line.
In general terms: Quantitative PCR measures a nucleic acid by following its amplification.

For experiment [4], the system named is 10(3) cells with human mutant p53 construct 248. Briefly: Growth inhibition assay on isogenic murine fibroblast lines (96-well MTS). The experiment is classed as cell-based. Conditions: cells with mutation p53^248. As for the experimental part:
(§1) None of these compounds have been previously reported for their selective activity in cells with a mutant p53. To provide further evidence for their specificity, growth inhibition assays were performed on isogenic cell lines. Previously developed murine fibroblast cell line (10)3 (p53 null) and 10(3) with transfection of cytomegalovirus-human mutant p53 constructs (273, 248 and 175) (Dittmer, D., et al., Nature Genetics, 1993. 4(1): p. 42-6) were used as cases, while the murine fibroblast cell line 3T3 was used as a p53 wild type control.
(§2) The compounds were validated using several different cell line systems. The first system used was a mouse embryonic fibroblast (MEF) system in which a p53 null MEF line, 10(3), was used as a parental line from which several stable CMV-mutant p53 transfectants were derived. The p53 mutations investigated were the “hot spot” mutants 175, 248, and 273. NIH3T3 fibroblasts were used as a p53 wild type control.

In experiment [5] the test system is 10(3) cells with human mutant p53 construct 175. The description is as above. The experiment is classed as cell-based. Conditions: cells carrying the p53^173 mutation (so in the source). On the procedure:
as §1, §2

Experiment [6] deals with 10(3) cells with human mutant p53 construct 273. Described as above. The format is cell-based. As to conditions: cells with mutation p53^273. On the procedure:
as §1, §2

In experiment [7] the test system is murine fibroblast cell line (10)3 (p53 null). The experiment is described as above. The format is cell-based. As to conditions: p53^null cells. On the procedure: as §1, §2
The target of experiment [8] is T1, p53 R175H (Homo sapiens, UniProt P04637, R175H).
T1 construct: one ovarian carcinoma cell line containing a p53^R175H (TOV112D); endogenous in cells; host or cells: TOV112D human ovarian carcinoma cells
Description: Immunoprecipitation of TOV112D lysates with mutant specific antibody PAB240. The format is cell-based. Conditions: detection with DO-1. The source says: This conformational change was confirmed by immunoprecipitation of lysates from NSC319726-treated TOV112D cells using the mutant specific antibody PAB240. To that end, cell lysates were precipitated with PAB240 and detected with p53 (DO-1) antibody which recognizes all types of p53 protein conformations.

For experiment [9], the system named is MEF cells with exogenous p53 mutations. Description: Apoptosis by Annexin V staining in MEF cells. The format is cell-based, mouse. Conditions: MEF cells with exogenous p53 mutations. The source says:
Briefly, apoptosis was examined by Annexin V staining using standard methods.

pIC50: −log10 of the molar value.

With `COc1cc([C@@H]2c3cc4c(cc3[C@@H](O[C@@H]3O[C@@H]5CO[C@@H](C)O[C@H]5[C@H](O)[C@H]3O)[C@H]3COC(=O)[C@H]23)OCO4)cc(OC)c1O` [Etoposide, reference compound], the “p21 induction (Western blot)” value in [1] (TOV112D (p53R175H)) is “failed to induce p21”.
`CC(=O)c1ccc2c(c1)c1c(C)c3c[n+](C)ccc3c(C)c1n2C.[I-]` [NSC612941]: the “Score (Formula I)” value in experiment [2] is listed as 0.55.
With `CC1=CC(=C(c2ccc(N)cc2)c2ccc(N)cc2)C=CC1=N.Cl` [NSC93739], the “Score (Formula I)” value in [2] is 0.50.
Take `CC(=NNC(=S)N(C)C)c1ccccn1` [NSC319725]: the “Score (Formula I)” value in experiment [2] amounted to 0.50. In addition, the “induction of mRNA of p53 targets p21, PUMA, MDM2” value in experiment [3] is given as “no such effect”. For the same compound, the negative-log IC50 (pIC50) in experiment [4] was about 7.00; in [5], about 8.00; in experiment [6] it was about 7.00; in experiment [7], about 7.00. In addition, the “amount of p53 R175H immunoprecipitated by mutant specific antibody PAB240” value in experiment [8] is reported as “not”. Besides, the “p21 induction (Western blot)” value is reported as “did induce p21” in experiment [1] (SKOV3 (p53 null)) and “did not induce p21” in experiment [1] (TOV112D (p53R175H)). For the same compound, the “induction of apoptosis (Annexin V staining)” value in [9] is listed as “did not induce apoptosis”.
Turning to `Cc1ccc(S(=O)(=O)O)cc1.Cn1c2ccccc2n2c3ccccc3c3nnc(N)c-3c12` [NSC694266], the “Score (Formula I)” value in experiment [2] came to 0.50.
For the compound `COc1ccc2c(c1)c1c(C)c3c[n+](C)ccc3c(C)c1n2C` [NSC155694], the “Score (Formula I)” value in [2] was found to be 0.55.
